Source: patent US10646466B2, “Uses of gallocatechin” (TCI CO., LTD., priority 2017, dated 2020)

Tests used:
Format in all cases: cell-based
Conditions in all cases: 0.0625 μg/ml, 24 hours, control set as 1-fold
[1] = test system: TPH1 gene; test: qPCR expression level of TPH1 gene in SHSY5Y cells
Protocol: (§1) SHSYSY cells were seeded in a 6-well plate (1×10^5 cells/well) and then cultured for 24 hours. Thereafter, cells were divided into the control group and experimental group and were separately cultured in the following medium for 24 hours: • 1. Control group: DMEM medium; • 2. Experimental group: a medium the same as that of the control group, but additionally added with 0.0625 μg/ml of the compound of formula (I). Thereafter, cells of the above groups were harvested and subjected to an RNA extraction with an RNA Extract Kit. The RNA thus obtained was then transcribed into cDNA by using a Reverse Transcriptase. Thereafter, the cDNA was subjected to a quantitative polymerase chain reaction (qPCR) by using a Step One Plus system and a KAPA SYBR FAST qPCR kit to determine the expression levels of genes related to melatonin (including TPH1, DDC, AANAT and ASMTL) in the cells of each group. The above experimental steps were repeated three times, and then the results of the three experiments were averaged. Thereafter, the result of the control group was used as a basis (i.e., the gene expression level of the control group was set as 1-fold) to calculate the relative gene expression level of the experimental group.

[2] = test system: ASMTL gene; test: qPCR expression level of ASMTL gene in SHSY5Y cells
Protocol: as §1

[3] = test system: DDC gene; test: qPCR expression level of DDC gene in SHSY5Y cells
Protocol: as §1

[4] = test system: AANAT gene; test: qPCR expression level of AANAT gene in SHSY5Y cells
Protocol: as §1

Oc1cc(O)c2c(c1)O[C@H](c1cc(O)c(O)c(O)c1)[C@@H](O)C2 [compound of formula (I), gallocatechin]
significantly increased: relative expression level of TPH1 gene as compared to the control group [1] | relative expression level of ASMTL gene as compared to the control group [2] | relative expression level of DDC gene as compared to the control group [3] | relative expression level of AANAT gene as compared to the control group [4]
